Reference: ChEMBL document CHEMBL3885881, “DrugMatrix”

Organism: Rattus norvegicus
Test: DrugMatrix - Regimen: Daily Repeat
Format: toxicity, organism-based, Sprague-Dawley
Set-up: regimen Daily Repeat, gender Male, age 6-8 weeks
Settings: in vivo, po, route oral GAVAGE, vehicle .5 % CMC; for ABSOLUTE BASOPHIL / ABSOLUTE EOSINOPHIL / ABSOLUTE LYMPHOCYTE / ABSOLUTE MONOCYTE / ABSOLUTE SEGMENTED NEUTROPHIL / BASOPHIL / EOSINOPHIL / ERYTHROCYTE COUNT / HEMATOCRIT / HEMOGLOBIN / LEUKOCYTE COUNT / LYMPHOCYTE / MEAN CORPUSCULAR HEMOGLOBIN / MEAN CORPUSCULAR HEMOGLOBIN CONCENTRATION / MEAN CORPUSCULAR VOLUME / MONOCYTE / NEUTROPHIL / NUCLEATED RED BLOOD CELLS / PLATELET COUNT: tissue Blood; for ALANINE AMINOTRANSFERASE / ALBUMIN / ALKALINE PHOSPHATASE / ASPARTATE AMINOTRANSFERASE / BLOOD UREA NITROGEN / CARBON DIOXIDE / CHLORIDE / CHOLESTEROL / CREATINE PHOSPHOKINASE / CREATININE / GLUCOSE / LACTATE DEHYDROGENASE / LIPASE / PHOSPHORUS / POTASSIUM / SODIUM / TOTAL BILIRUBIN / TOTAL PROTEIN / URIC ACID: tissue Plasma
[1] = 10 mg/kg, 120 h, dose level Low, time 5 day
[2] = 2500 mg/kg, 72 h, dose level High, time 3 day
[3] = 2500 mg/kg, 120 h, dose level High, time 5 day

O=C1CN=C(c2ccccc2Cl)c2cc([N+](=O)[O-])ccc2N1 [CLONAZEPAM]
ABSOLUTE BASOPHIL [1]: 0 CELLS/uL | ABSOLUTE EOSINOPHIL [1]: 31 CELLS/uL | ABSOLUTE LYMPHOCYTE [1]: 8153 CELLS/uL | ABSOLUTE MONOCYTE [1]: 62 CELLS/uL | ABSOLUTE SEGMENTED NEUTROPHIL [1]: 620.67 CELLS/uL | BASOPHIL [1]: 0% | EOSINOPHIL [1]: 0.33% | ERYTHROCYTE COUNT [1]: 5.74 x10E6/uL | HEMATOCRIT [1]: 35.3% | HEMOGLOBIN [1]: 13.87 G/DL | LEUKOCYTE COUNT [1]: 8.87 x10E3/uL | LYMPHOCYTE [1]: 91.67% | MEAN CORPUSCULAR HEMOGLOBIN [1]: 24.13 pg | MEAN CORPUSCULAR HEMOGLOBIN CONCENTRATION [1]: 39.3 G/DL | MEAN CORPUSCULAR VOLUME [1]: 61.43 fL | MONOCYTE [1]: 0.67% | NEUTROPHIL [1]: 7.33% | NUCLEATED RED BLOOD CELLS [1]: 0 /100WBC | PLATELET COUNT [1]: 1168 x10E3/uL | ALANINE AMINOTRANSFERASE [1]: 54 u/L | ALBUMIN [1]: 4.33 G/DL | ALKALINE PHOSPHATASE [1]: 274.67 u/L | ASPARTATE AMINOTRANSFERASE [1]: 97 u/L | BLOOD UREA NITROGEN [1]: 18.67 mg/dL | CARBON DIOXIDE [1]: 25.67 mmol/L | CHLORIDE [1]: 98.67 MEQ/L | CHOLESTEROL [1]: 75.33 mg/dL | CREATINE PHOSPHOKINASE [1]: 826.67 u/L | CREATININE [1]: 0.19 mg/dL | GLUCOSE [1]: 177.67 mg/dL | LACTATE DEHYDROGENASE [1]: 201 u/L | LIPASE [1]: 10 u/L | PHOSPHORUS [1]: 11.6 mg/dL | POTASSIUM [1]: 5.92 MEQ/L | SODIUM [1]: 138.97 MEQ/L | TOTAL BILIRUBIN [1]: 0.13 mg/dL | TOTAL PROTEIN [1]: 6.07 G/DL | URIC ACID [1]: 1.63 mg/dL | ABSOLUTE BASOPHIL [2]: 0 CELLS/uL | ABSOLUTE EOSINOPHIL [2]: 0 CELLS/uL | ABSOLUTE LYMPHOCYTE [2]: 8925.67 CELLS/uL | ABSOLUTE MONOCYTE [2]: 256 CELLS/uL | ABSOLUTE SEGMENTED NEUTROPHIL [2]: 1951.67 CELLS/uL | BASOPHIL [2]: 0% | EOSINOPHIL [2]: 0% | ERYTHROCYTE COUNT [2]: 5.85 x10E6/uL | HEMATOCRIT [2]: 36.6% | HEMOGLOBIN [2]: 14.27 G/DL | LEUKOCYTE COUNT [2]: 11.13 x10E3/uL | LYMPHOCYTE [2]: 79% | MEAN CORPUSCULAR HEMOGLOBIN [2]: 24.47 pg | MEAN CORPUSCULAR HEMOGLOBIN CONCENTRATION [2]: 39.03 G/DL | MEAN CORPUSCULAR VOLUME [2]: 62.67 fL | MONOCYTE [2]: 2.33% | NEUTROPHIL [2]: 18.67% | NUCLEATED RED BLOOD CELLS [2]: 0.33 /100WBC | PLATELET COUNT [2]: 1190 x10E3/uL | ALANINE AMINOTRANSFERASE [2]: 88.33 u/L | ALBUMIN [2]: 3.97 G/DL | ALKALINE PHOSPHATASE [2]: 322 u/L | ASPARTATE AMINOTRANSFERASE [2]: 132 u/L | BLOOD UREA NITROGEN [2]: 19.33 mg/dL | CARBON DIOXIDE [2]: 31.33 mmol/L | CHLORIDE [2]: 100.33 MEQ/L | CHOLESTEROL [2]: 88.67 mg/dL | CREATINE PHOSPHOKINASE [2]: 910.33 u/L | CREATININE [2]: 0.49 mg/dL | GLUCOSE [2]: 134.33 mg/dL | LACTATE DEHYDROGENASE [2]: 213.67 u/L | LIPASE [2]: 11.33 u/L | PHOSPHORUS [2]: 13.77 mg/dL | POTASSIUM [2]: 6.47 MEQ/L | SODIUM [2]: 143.17 MEQ/L | TOTAL BILIRUBIN [2]: 0.2 mg/dL | TOTAL PROTEIN [2]: 5.7 G/DL | URIC ACID [2]: 0.57 mg/dL | ABSOLUTE BASOPHIL [3]: 0 CELLS/uL | ABSOLUTE EOSINOPHIL [3]: 0 CELLS/uL | ABSOLUTE LYMPHOCYTE [3]: 10757.67 CELLS/uL | ABSOLUTE MONOCYTE [3]: 124 CELLS/uL | ABSOLUTE SEGMENTED NEUTROPHIL [3]: 1618.33 CELLS/uL | BASOPHIL [3]: 0% | EOSINOPHIL [3]: 0% | ERYTHROCYTE COUNT [3]: 5.66 x10E6/uL | HEMATOCRIT [3]: 34.97% | HEMOGLOBIN [3]: 14.27 G/DL | LEUKOCYTE COUNT [3]: 12.5 x10E3/uL | LYMPHOCYTE [3]: 85.67% | MEAN CORPUSCULAR HEMOGLOBIN [3]: 25.23 pg | MEAN CORPUSCULAR HEMOGLOBIN CONCENTRATION [3]: 40.83 G/DL | MEAN CORPUSCULAR VOLUME [3]: 61.8 fL | MONOCYTE [3]: 1% | NEUTROPHIL [3]: 13.33% | NUCLEATED RED BLOOD CELLS [3]: 0 /100WBC | PLATELET COUNT [3]: 964.33 x10E3/uL | ALANINE AMINOTRANSFERASE [3]: 84 u/L | ALBUMIN [3]: 3.93 G/DL | ALKALINE PHOSPHATASE [3]: 331.67 u/L | ASPARTATE AMINOTRANSFERASE [3]: 114 u/L | BLOOD UREA NITROGEN [3]: 19 mg/dL | CARBON DIOXIDE [3]: 27 mmol/L | CHLORIDE [3]: 102.33 MEQ/L | CHOLESTEROL [3]: 93 mg/dL | CREATINE PHOSPHOKINASE [3]: 261 u/L | CREATININE [3]: 0.2 mg/dL | GLUCOSE [3]: 136.67 mg/dL | LACTATE DEHYDROGENASE [3]: 217.67 u/L | LIPASE [3]: 10.33 u/L | PHOSPHORUS [3]: 9.8 mg/dL | POTASSIUM [3]: 5.43 MEQ/L | SODIUM [3]: 142.37 MEQ/L | TOTAL BILIRUBIN [3]: 0.2 mg/dL | TOTAL PROTEIN [3]: 5.73 G/DL | URIC ACID [3]: 1.13 mg/dL
